Source: patent publication US10912749B2, “Conjugate acid salt of N,N-dimethylglycine with organic acid, and composition and use thereof” (GUANGZHOU INSIGHTER BIOTECHNOLOGY CO., LTD., priority 2017, dated 2021)
Counter-ions that a name gives are not always drawn. Marks after values point to notes of the source that are not given here.

Key:
[1] = High-humidity stability test; type: physicochemical; conditions: for hygroscopicity (in words): 25° C. and RH 95%, weight gains at day 5 turned the samples into water-like status; for hygroscopic weight gain Day 5 (%) / hygroscopic weight gain Day 10 (%): 25° C., RH 95%±1%, mean value±standard error, three parallels
Procedure: Method: A KNO3 saturated solution (25° C., […]) was placed in the lower part of a constant-temperature and constant-humidity sealed container. The test samples, three parallels for each test sample, were placed at 25° C. and RH 95%±1% for 10 days, and their average weight gains were measured at day 5 and day 10.

[2] = tested on: Sanhuang broilers; assay: Breeding experiment in broiler feed (production performance); type: in vivo
Procedure: The experiment was carried out by single-factor randomized design. 1080 22-day-old Sanhuang broilers having similar body weight (averagely 153 g) were collected and randomly divided into 9 groups, 6 replicates in each group, 20 broilers in each replicate, with equal numbers of males and females. The henhouse and utensils were disinfected before the experiment. The broilers were kept in cages in the same henhouse under the same breeding conditions during the experiment. The basic diets mainly composed of corn and soybean meal, and no other antioxidant ingredients and growth promoters were added during the whole breeding process. The groups included a blank group, a control group, and experiment groups 1-7. […] For each replicate, the broilers were weighed (stopped feeding for 12 hours while water supply was maintained) at 42-day-old and their feed consumptions were recorded so as to calculate the average daily feed intake (ADFI), average daily weight gain (ADG) and feed conversion ratio (FCR). The experiment data were analyzed with SPSS18 software. The data were first analyzed by single factor analysis of variance (ANOVA), and if the differences between the groups were significant, multiple comparisons were performed using Duncan's method wherein the significance level was 0.05.

[3] = tested on: grass carps; assay: Growth promotion experiment in aquatic feed; type: in vivo; conditions: 450 ppm in feed, 8 weeks; for SR (%): survival rate
Procedure: Test fish: The experiment fish were grass carps, born at the year of the test, from Dafeng hatchery in Huizhou City, Guangdong Province. Healthy and lively grass carps of the same size were reared in big net cages (4×2×1.5 m^3) for four weeks before the breeding experiment. The experiment system included floating small net cages (1.1×1.1×1.1 m^3), each small net cage was provided with an aerator and aerated 24 hours every day. […] 384 fish which were similar in body weight and had been starved for 1 day were randomly divided into 8 groups, 4 replicates in each group and 12 fish in each replicate. The fish of each replicate were weighed and transferred to […] net cages, and fed with different test feeds respectively.
Experiment feeds: The experiment feeds were prepared according to Table 6. The groups were respectively provided with different conjugate acid salts of N,N-dimethylglycine with metal and organic acid in the same concentration according to Table 7. Raw materials of the feed were ultra-pulverized, and then turned into floating expanded feed having a particle size of 3 mm by using a feed extruder from Jiangsu Muyang Group Co., Ltd. wherein the extruding temperature was 130° C., and 3% of soybean oil was sprayed on the feed using an oil sprayer. The feed was then sealed and stored in a cool place for later use.
Test management: The experiment was carried out with diet restriction, the diet amount was adjusted once a week, the feeding level (based on initial weight) of each group was exactly the same, and feeding was conducted twice every day (at 7:30 and 15:00). The experiment was carried out for 8 weeks. During the experiment, water quality was monitored regularly to maintain the following conditions: water temperature 26.88±3.08° C., DO>5.0 mg O L^−1, pH 7.8, ammonia nitrogen <0.50 mg N L^−1, and nitrite nitrogen <0.05 mg N L^1.
Parameter statistics: In the experiment, the fish in each net cage were weighed as a whole after starved for 1 day so as to calculate their weight gain (WG, %), feed conversion ratio (FCR) and survival rate (SR, %), through the following formula. Weight gain (WG, %)=100×(average final weight−average initial weight)/average initial weight Feed conversion ratio (FCR)=feed intake/fish weight gain Survival rate (SR, %)=100×fish amount at the end of the test/fish amount at the beginning of the test

| Compound | hygroscopicity (in words) [1] | hygroscopic weight gain Day 5 (%) [1] [%] | hygroscopic weight gain Day 10 (%) [1] [%] | breeding effect with respect to feed conversion efficiency compared with sodium N,N-dimethylglycinate [2] | (FCR) [3] | Final weight [3] [g] | Weight gain (%) [3] [%] | SR (%) [3] |
| --- | --- | --- | --- | --- | --- | --- | --- | --- |
| CN(C)CC(=O)O.Cl [Sample 1, N,N-dimethylglycine hydrochloride] | very high hygroscopicity | 79.86 ± 0.94 | 80.69 ± 0.59 |  |  |  |  |  |
| CN(C)CC(=O)[O-].[Na+] [Sample 2, Sodium N,N-dimethylglycinate] | very high hygroscopicity | 49.09 ± 1.14 | 52.44 ± 0.48 |  |  |  |  |  |
| CN(C)CC(=O)[O-].CN(C)CC(=O)[O-].O=C(O)c1ccccc1.O=C(O)c1ccccc1.[Ca+2] [Sample 5, Conjugate acid salt of calcium N,N-dimethylglycinate with benzoic acid] |  |  | 3.69 ± 0.28 | equivalent to that of sodium N,N-dimethylglycinate | 1.48 ± 0.03 | 586.87 ± 10.44 | 134.96 ± 2.82 | 83.10 ± 3.65^b % |
| CN(C)CC(=O)[O-].CN(C)CC(=O)[O-].O=C(O)/C=C/C(=O)O.[Ca+2] [Sample 6, Conjugate acid salt of calcium N,N-dimethylglycinate with fumaric acid] |  |  |  |  | 1.48 ± 0.03 | 589.33 ± 12.75 | 138.98 ± 3.02 | 83.90 ± 5.30^b % |
| CCCCCCCCCCCCCC(=O)O.CCCCCCCCCCCCCC(=O)O.CN(C)CC(=O)[O-].CN(C)CC(=O)[O-].[Ca+2] [Sample 7, Conjugate acid salt of calcium N,N-dimethylglycinate with tetradecanoic acid] |  |  | 3.06 ± 0.29 |  | 1.46 ± 0.04 | 585.22 ± 11.23 | 134.40 ± 2.90 | 73.00 ± 3.63^b % |
| CN(C)CC(=O)[O-].CN(C)CC(=O)[O-].O=C(O)c1ccccc1.O=C(O)c1ccccc1.[Cu+2] [Sample 8, Conjugate acid salt of copper N,N-dimethylglycinate with benzoic acid] |  |  |  |  | 1.41 ± 0.03 | 598.68 ± 9.66 | 143.40 ± 10.09 | 80.04 ± 3.80^b % |
| CN(C)CC(=O)[O-].CN(C)CC(=O)[O-].O=C(O)/C=C/C(=O)O.[Cu+2] [Sample 9, Conjugate acid salt of copper N,N-dimethylglycinate with fumaric acid] |  |  |  |  | 1.43 ± 0.03 | 598.12 ± 9.27 | 139.12 ± 2.34 | 83.96 ± 5.68^b % |
| CN(C)CC(=O)[O-].CN(C)CC(=O)[O-].O=C(O)c1ccccc1.O=C(O)c1ccccc1.[Zn+2] [Sample 10, Conjugate acid salt of zinc N,N-dimethylglycinate with benzoic acid] |  |  |  |  | 1.45 ± 0.03 | 597.66 ± 9.69 | 133.08 ± 4.70 | 78.04 ± 4.21^b % |
| CN(C)CC(=O)[O-].CN(C)CC(=O)[O-].O=C(O)/C=C/C(=O)O.[Zn+2] [Sample 11, Conjugate acid salt of zinc N,N-dimethylglycinate with fumaric acid] |  |  |  |  | 1.44 ± 0.02 | 600.00 ± 9.30 | 139.98 ± 3.58 | 84.94 ± 4.26^b % |
| CN(C)CC(=O)[O][Zn][O]C(=O)CN(C)C [Sample 11, Conjugate acid salt of zinc N,N-dimethylglycinate with fumaric acid] |  |  | 2.88 ± 0.22 |  |  |  |  |  |
| Calcium N,N-dimethylglycinate [Sample 3] | very high hygroscopicity | 38.40 ± 0.22 | 41.83 ± 0.35 |  |  |  |  |  |
